We go through 14 molecules from patent US20230303547A1, “N-CYANOPYRROLIDINES WITH ACTIVITY AS USP30 INHIBITORS” (MISSION THERAPEUTICS LIMITED, priority 2020, published 2023).

The structures appear in SMILES notation. Where two headings read alike, the source gives them in different places.

The target of one experiment is UCHL1 (Homo sapiens (Human), UniProt P09936). Kind of experiment: UCHL1 DUB IC50. Format: biochemical. As to conditions: for DUB selectivity preference for USP30 v UCHL1: fold.
Another experiment concerns the target USP30 (Homo sapiens (Human), UniProt Q70CQ3). Briefly: USP30 biochemical IC50 assay (fluorescence polarisation). As for the experimental part:
It is generally desirable to maximise the potency of a drug molecule against the target enzyme in relevant assays in order to lower the effective/efficacious dosage that is to be administered to patients. Compounds of the invention may be tested for USP30 affinity using the in vitro biochemical fluorescence polarization (FP) assay described herein.
Dilution plates were prepared at 21 times the final concentration (2100 µM for a final concentration of 100 µM) in 50% DMSO in a 96-well polypropylene V-bottom plate (Greiner #651201). A typical 8-point dilution series would be 100, 30, 10, 3, 1, 0.3, 0.1, 0.03 µM final. Reactions were performed in duplicate in black 384 well plates (small volume, Greiner 784076) in a final reaction volume of 21 µl. Either 1 µl of 50% DMSO or diluted compound was added to the plate. USP30 (Boston Biochem #E582) was diluted in reaction buffer (40 mM Tris, pH 7.5, 0.005% Tween 20, 0.5 mg/ml BSA, 5 mM beta-mercaptoethanol) to achieve a final assay concentration of 4 nM, and 10 µl of diluted USP30 was added to the compound. Enzyme and compound were incubated for 30 min at room temp. Reactions were initiated by the addition of 50 nM of TAMRA labelled peptide linked to ubiquitin via an iso-peptide bond as fluorescence polarisation substrate. Reactions were read immediately after addition of substrate and following a 2-hour incubation at room temperature. Readings were performed on a Pherastar Plus (BMG Labtech). λ Excitation 540 nm; λ Emission 590 nm.
(In fluorescence polarisation assays a small probe gives low polarisation when free and higher when bound to something large.)

Another experiment addresses Cathepsin L (Homo sapiens (Human), UniProt P07711). Briefly: Cathepsin L IC50. Format: biochemical.
A further experiment has as its target Cathepsin S (Homo sapiens (Human), UniProt P25774). Kind of experiment: Cathepsin S IC50. Format: biochemical.
The target of another experiment is Cathepsin V (Homo sapiens (Human), UniProt O60911). Briefly: Cathepsin V IC50. The class given is biochemical.
In a further experiment the target is Cathepsin K (Homo sapiens (Human), UniProt P43235). Kind of experiment: Cathepsin K IC50. Format: biochemical.
Another experiment addresses Cathepsin B (Homo sapiens (Human), UniProt P07858). Kind of experiment: Cathepsin B IC50. The class given is biochemical.
In experiment [1] the test system is cathepsins (B, K, L, S and V). Kind of experiment: Cathepsin panel summary. Format: biochemical. As to conditions: for Selectivity preference for USP30 v cathepsins: fold; for IC50: summary over the five cathepsins.
The test system of experiment [2] is USP2, USP6, USP10, USP15, USP16, USP21, USP25, USP28, USP46/UAF1. Briefly: DUB selectivity panel IC50. As to conditions: for DUB selectivity preference for USP30 v 9 DUBs: fold, minimum over nine DUBs; for IC50: range over the nine DUBs. The class given is biochemical.
[3] abbreviates: reference examples, USP30 biochemical IC50 assay, read-out: USP30 IC50.
[4] abbreviates: USP30 biochemical IC50 assay, read-out: IC50.

Chain of UCHL1 (P09936 whole entry, species assumed): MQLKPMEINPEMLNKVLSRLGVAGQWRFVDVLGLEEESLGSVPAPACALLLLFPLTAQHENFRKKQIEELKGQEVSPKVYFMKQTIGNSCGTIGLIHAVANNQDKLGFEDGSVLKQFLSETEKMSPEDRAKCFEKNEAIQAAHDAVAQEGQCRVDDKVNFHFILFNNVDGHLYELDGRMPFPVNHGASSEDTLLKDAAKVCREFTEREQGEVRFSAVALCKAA
Chain of Cathepsin L (P07711 114-333, species assumed): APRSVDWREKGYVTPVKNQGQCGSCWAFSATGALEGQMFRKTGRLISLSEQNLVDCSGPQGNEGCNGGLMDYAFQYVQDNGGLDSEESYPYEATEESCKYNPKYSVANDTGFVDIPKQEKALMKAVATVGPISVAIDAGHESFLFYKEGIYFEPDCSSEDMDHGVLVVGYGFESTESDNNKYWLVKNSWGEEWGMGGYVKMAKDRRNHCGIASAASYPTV
Chain of Cathepsin V (O60911 114-334, species assumed): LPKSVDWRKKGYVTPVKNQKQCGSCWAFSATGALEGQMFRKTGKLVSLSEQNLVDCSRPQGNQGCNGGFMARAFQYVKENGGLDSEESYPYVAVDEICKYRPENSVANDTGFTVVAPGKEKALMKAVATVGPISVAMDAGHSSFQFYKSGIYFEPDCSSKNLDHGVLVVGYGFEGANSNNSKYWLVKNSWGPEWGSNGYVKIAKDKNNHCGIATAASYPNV
Chain of Cathepsin K (P43235 115-329, species assumed): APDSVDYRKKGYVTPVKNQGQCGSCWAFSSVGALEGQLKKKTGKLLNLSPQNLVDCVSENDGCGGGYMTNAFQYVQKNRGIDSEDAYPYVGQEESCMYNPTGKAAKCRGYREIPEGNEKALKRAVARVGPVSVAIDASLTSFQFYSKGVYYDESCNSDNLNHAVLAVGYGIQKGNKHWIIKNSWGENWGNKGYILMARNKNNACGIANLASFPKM
Chain of USP30 (Q70CQ3 57-517): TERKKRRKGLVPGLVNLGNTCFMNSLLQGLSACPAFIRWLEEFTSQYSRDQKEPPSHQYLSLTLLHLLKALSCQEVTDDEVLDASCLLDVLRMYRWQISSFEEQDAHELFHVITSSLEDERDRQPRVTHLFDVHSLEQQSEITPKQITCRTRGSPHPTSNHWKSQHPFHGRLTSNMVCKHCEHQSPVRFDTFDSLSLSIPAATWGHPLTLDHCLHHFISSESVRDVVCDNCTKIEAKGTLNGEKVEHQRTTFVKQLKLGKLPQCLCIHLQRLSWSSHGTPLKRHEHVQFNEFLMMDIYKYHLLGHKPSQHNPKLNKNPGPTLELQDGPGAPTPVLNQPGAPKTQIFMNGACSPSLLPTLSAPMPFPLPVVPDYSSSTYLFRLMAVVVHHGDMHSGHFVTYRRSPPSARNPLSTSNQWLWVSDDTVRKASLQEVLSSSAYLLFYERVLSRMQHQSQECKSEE
Chain of Cathepsin S (P25774 115-331, species assumed): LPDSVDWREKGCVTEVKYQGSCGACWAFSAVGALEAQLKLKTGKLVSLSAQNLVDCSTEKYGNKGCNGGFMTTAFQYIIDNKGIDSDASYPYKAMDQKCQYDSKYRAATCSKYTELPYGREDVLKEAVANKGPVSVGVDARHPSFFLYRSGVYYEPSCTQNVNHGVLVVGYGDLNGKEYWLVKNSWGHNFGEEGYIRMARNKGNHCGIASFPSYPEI

In the case of `N#Cc1ccc(-c2cnc(NC(=O)[C@H]3CCN(C#N)C3)s2)cc1OC(F)(F)F` [B, reference compound], at UCHL1, half-maximal inhibition (IC50) required 0.52 µM and the “DUB selectivity preference for USP30 v UCHL1” value came to 3.0.

As to `COc1cc(-c2cnc(NC(=O)[C@H]3CCN(C#N)C3)s2)ccc1C#N` [C, reference compound], the results for the IC50 at USP30 (read-out: DUB IC50 USP30), on USP30 (setting [3]) and against UCHL1 were 160 nM, 160 nM and 0.21 µM, respectively. For the same molecule, the “DUB selectivity preference for USP30 v UCHL1” value on UCHL1 is 1.3.

Consider `N#CN1CC[C@H](C(=O)Nc2ncc(-c3ccccc3)s2)C1` [D, reference compound], for which the “DUB selectivity preference for USP30 v UCHL1” value on UCHL1 worked out at 0.8.

In the case of `COc1ccc(C#N)cc1-c1cnc(C(=O)N[C@@H]2C[C@@H](C)N(C#N)C2)o1` [Example 4, 5-(5-cyano-2-methoxyphenyl)-N-((3R,5R)-1-cyano-5-methylpyrrolidin-3-yl)oxazole-2-carboxamide], the IC50 (usually the concentration needed to halve the response being measured) on Cathepsin L is 294 µM; at UCHL1, over 300 µM; on Cathepsin S, over 300 µM; at Cathepsin V it was over 300 µM; against Cathepsin K, 165 µM; at Cathepsin B it was over 300 µM.

In the case of `COC[C@@H]1C[C@@H](NC(=O)c2ncc(-c3cc(C#N)ccc3OC)o2)CN1C#N` [Example 5, 5-(5-cyano-2-methoxyphenyl)-N-((3R,5S)-1-cyano-5-(methoxymethyl)pyrrolidin-3-yl)oxazole-2-carboxamide], the 50% inhibitory concentration (IC50) at USP30 (setting [4]) stood at 3 nM.

Turning to `COC[C@@H]1C[C@@H](NC(=O)c2nc(-c3cc(C#N)ccc3OC)co2)CN1C#N` [Example 6, 4-(5-cyano-2-methoxyphenyl)-N-((3R,5S)-1-cyano-5-(methoxymethyl)pyrrolidin-3-yl)oxazole-2-carboxamide], the 50% inhibitory concentration (IC50) against Cathepsin L was 39.8 µM; on USP30 (setting [4]), 2 nM; on USP30 (read-out: DUB IC50 USP30) it was 2 nM; on UCHL1, over 300 µM; on Cathepsin S it was 64.8 µM; against Cathepsin V, 91.6 µM. Moreover, the IC50 in [1] was at least 39.8 µM; against Cathepsin K it was 40.4 µM; in experiment [2], 1.4 to 258 µM; at Cathepsin B, 52.1 µM. Further, the “Selectivity preference for USP30 v cathepsins” value in experiment [1] is given as at least 19900. Moreover, the “DUB selectivity preference for USP30 v 9 DUBs” value in [2] is at least 700.

Take `COC[C@@H]1C[C@@H](NC(=O)c2ncc(-c3cc(C#N)ccc3OC(F)(F)F)o2)CN1C#N` [Example 7, 5-(5-cyano-2-(trifluoromethoxy)phenyl)-N-((3R,5S)-1-cyano-5-(methoxymethyl)pyrrolidin-3-yl)oxazole-2-carboxamide]: the IC50 against Cathepsin L was 13.8 µM; at USP30 (setting [4]), 3 nM; at USP30 (read-out: DUB IC50 USP30), 3 nM; at UCHL1, over 300 µM; against Cathepsin S, over 30 µM; against Cathepsin V it was 12.1 µM. The results for the IC50 (in experiment [1]; against Cathepsin K; against Cathepsin B) were at least 12.1 µM, 14.9 µM and 60.9 µM, respectively. Besides, the “Selectivity preference for USP30 v cathepsins” value in experiment [1] is listed as at least 4033. Also, the “DUB selectivity preference for USP30 v 9 DUBs” value in [2] was at least 1333.

In the case of `C[C@@H]1C[C@@H](NC(=O)c2ncc(-c3cc(C#N)ccc3OC(F)(F)F)o2)CN1C#N` [Example 8, 5-(5-cyano-2-(trifluoromethoxy)phenyl)-N-((3R,5R)-1-cyano-5-methylpyrrolidin-3-yl)oxazole-2-carboxamide], the IC50 on USP30 (setting [4]) came to 4 nM.

Turning to `COc1cc(F)c(C#N)cc1-c1cnc(C(=O)N[C@@H]2C[C@@H](C)N(C#N)C2)o1` [Example 9, 5-(5-cyano-4-fluoro-2-methoxyphenyl)-N-((3R,5R)-1-cyano-5-methylpyrrolidin-3-yl)oxazole-2-carboxamide], the IC50 on USP30 (setting [4]) amounted to 2 nM.

As for `COC[C@@H]1C[C@@H](NC(=O)c2nc(-c3cc(C#N)ccc3OC3CC3)co2)CN1C#N` [Example 10, 4-(5-cyano-2-cyclopropoxyphenyl)-N-((3R,5S)-1-cyano-5-(methoxymethyl)pyrrolidin-3-yl)oxazole-2-carboxamide], at USP30 (setting [4]), the IC50 amounted to 4 nM.

Consider `COC[C@H]1C[C@@H](NC(=O)c2ncc(-c3cc(C#N)ccc3OC3CC3)o2)CN1C#N` [Example 11, 5-(5-cyano-2-cyclopropoxyphenyl)-N-((3R,5R)-1-cyano-5-(methoxymethyl)pyrrolidin-3-yl)oxazole-2-carboxamide], for which the IC50 on Cathepsin L was 15.4 µM; on USP30 (setting [4]) it was 10 nM; on UCHL1 it was over 300 µM; against Cathepsin S, 130 µM; at Cathepsin V, over 100 µM; in experiment [1], at least 15.4 µM. For the same molecule, the IC50 against Cathepsin K was found to be 100 µM; against Cathepsin B, 83 µM. The “Selectivity preference for USP30 v cathepsins” value in experiment [1] is reported as at least 1540. Also, in [2], the “DUB selectivity preference for USP30 v 9 DUBs” value was at least 7820.

Take `COC[C@H]1C[C@@H](NC(=O)c2nc(-c3cc(C#N)ccc3OC3CC3)co2)CN1C#N` [Example 12, 4-(5-cyano-2-cyclopropoxyphenyl)-N-((3R,5R)-1-cyano-5-(methoxymethyl)pyrrolidin-3-yl)oxazole-2-carboxamide]: the IC50 is over 300 µM against Cathepsin L; 68 nM at USP30 (setting [4]); over 300 µM against UCHL1; over 300 µM against Cathepsin S; 190 µM at Cathepsin V; at least 189 µM in [1]. Also, the IC50 against Cathepsin K and on Cathepsin B was over 300 µM in each case. Also, the “DUB selectivity preference for USP30 v UCHL1” value was “greater than 4412” on UCHL1 and over 4412 at UCHL1 (listed as Ex. 12). The “Selectivity preference for USP30 v cathepsins” value in [1] is on record as at least 2788. The “DUB selectivity preference for USP30 v 9 DUBs” value in experiment [2] was at least 110.

With `COc1cccc(-c2cc(C(=O)N[C@@H]3CCN(C#N)C3)on2)c1` [Reference Example A, reference compound], the IC50 is 2.9 µM on Cathepsin L; 68 nM at USP30 (read-out: DUB IC50 USP30); 68 nM at USP30 (setting [3]); 0.79 to 8.8 µM in experiment [1]; 0.15 to 22.4 µM in experiment [2]. Further, in experiment [1], the “Selectivity preference for USP30 v cathepsins” value is 11.6 - 129. In addition, on Cathepsin K, the “fold more potent against USP30 than against cathepsin K” value stood at 11.6 fold. The “DUB selectivity preference for USP30 v 9 DUBs” value in [2] is at least 2.2.

On to `CC1CC(C(=O)Nc2ncc(-c3ccccc3)s2)CN1C#N` (centres unmarked) [Reference Example E, reference compound], for which, at UCHL1, the “DUB selectivity preference for USP30 v UCHL1” value came to 1.5.
